The target of one experiment is T1, hNaV1.7 channel (Homo sapiens, UniProt Q15858).
T1 construct: expressed in transfected cells
The experiment in a line: Automated patch-clamp block of hNaV1.7 peak Na+ current in CHO cells. The note with it: for IC50: CHO cells stably expressing hNaV1.7, SyncroPatch 384 PE whole-cell, holding -100 mV, -10 mV test pulse 50 ms every 5 s, room temperature 18-22°C, 0.3% BSA, steady state or end of 15-min application, mean, S.E.M. and n cells; for hNaV1.7 IC50 versus WT: ratio of analogue mean IC50 to HwTx-IV WT mean IC50 on hNaV1.7. The format is cell-based. In a few lines:
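Automated whole-cell patch clamp on CHO cells stably expressing hNaV1.7, held at −100 mV at 18–22°C. Peak current evoked by 50 ms steps to −10 or 0 mV every 5 s; HwTx-IV analogues applied in extracellular solution with 0.3% BSA. Percent inhibition taken at steady-state block or after 15 min application.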
In general terms: The patch-clamp technique gives a direct electrical read-out from membranes.

In a further experiment the target is T2, hNaV1.6 channel (Homo sapiens, UniProt Q9UQD0).
T2 construct: expressed in transfected cells
The experiment is described as follows: Automated patch-clamp block of hNaV1.6 peak Na+ current in HEK-293 cells. The format is cell-based. To be noted: for IC50: HEK-293 cells stably expressing hNaV1.6, SyncroPatch 384 PE whole-cell, holding -100 mV, 0 mV test pulse 50 ms every 5 s, room temperature 18-22°C, 0.3% BSA, steady state or end of 15-min application, mean, S.E.M. and n cells; for hNaV1.6 IC50 versus WT: ratio of analogue mean IC50 to HwTx-IV WT mean IC50 on hNaV1.6. In a few lines:
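Whole-cell automated patch clamp at −100 mV holding, room temperature (18–22°C), CsF-based internal, 0.3% BSA in external solution; 50 ms steps to −10 or 0 mV every 5 s. Percent peak-current inhibition taken at steady-state block or after 15 min application, used for dose-response curves.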

T1 sequence (Q15858 whole entry): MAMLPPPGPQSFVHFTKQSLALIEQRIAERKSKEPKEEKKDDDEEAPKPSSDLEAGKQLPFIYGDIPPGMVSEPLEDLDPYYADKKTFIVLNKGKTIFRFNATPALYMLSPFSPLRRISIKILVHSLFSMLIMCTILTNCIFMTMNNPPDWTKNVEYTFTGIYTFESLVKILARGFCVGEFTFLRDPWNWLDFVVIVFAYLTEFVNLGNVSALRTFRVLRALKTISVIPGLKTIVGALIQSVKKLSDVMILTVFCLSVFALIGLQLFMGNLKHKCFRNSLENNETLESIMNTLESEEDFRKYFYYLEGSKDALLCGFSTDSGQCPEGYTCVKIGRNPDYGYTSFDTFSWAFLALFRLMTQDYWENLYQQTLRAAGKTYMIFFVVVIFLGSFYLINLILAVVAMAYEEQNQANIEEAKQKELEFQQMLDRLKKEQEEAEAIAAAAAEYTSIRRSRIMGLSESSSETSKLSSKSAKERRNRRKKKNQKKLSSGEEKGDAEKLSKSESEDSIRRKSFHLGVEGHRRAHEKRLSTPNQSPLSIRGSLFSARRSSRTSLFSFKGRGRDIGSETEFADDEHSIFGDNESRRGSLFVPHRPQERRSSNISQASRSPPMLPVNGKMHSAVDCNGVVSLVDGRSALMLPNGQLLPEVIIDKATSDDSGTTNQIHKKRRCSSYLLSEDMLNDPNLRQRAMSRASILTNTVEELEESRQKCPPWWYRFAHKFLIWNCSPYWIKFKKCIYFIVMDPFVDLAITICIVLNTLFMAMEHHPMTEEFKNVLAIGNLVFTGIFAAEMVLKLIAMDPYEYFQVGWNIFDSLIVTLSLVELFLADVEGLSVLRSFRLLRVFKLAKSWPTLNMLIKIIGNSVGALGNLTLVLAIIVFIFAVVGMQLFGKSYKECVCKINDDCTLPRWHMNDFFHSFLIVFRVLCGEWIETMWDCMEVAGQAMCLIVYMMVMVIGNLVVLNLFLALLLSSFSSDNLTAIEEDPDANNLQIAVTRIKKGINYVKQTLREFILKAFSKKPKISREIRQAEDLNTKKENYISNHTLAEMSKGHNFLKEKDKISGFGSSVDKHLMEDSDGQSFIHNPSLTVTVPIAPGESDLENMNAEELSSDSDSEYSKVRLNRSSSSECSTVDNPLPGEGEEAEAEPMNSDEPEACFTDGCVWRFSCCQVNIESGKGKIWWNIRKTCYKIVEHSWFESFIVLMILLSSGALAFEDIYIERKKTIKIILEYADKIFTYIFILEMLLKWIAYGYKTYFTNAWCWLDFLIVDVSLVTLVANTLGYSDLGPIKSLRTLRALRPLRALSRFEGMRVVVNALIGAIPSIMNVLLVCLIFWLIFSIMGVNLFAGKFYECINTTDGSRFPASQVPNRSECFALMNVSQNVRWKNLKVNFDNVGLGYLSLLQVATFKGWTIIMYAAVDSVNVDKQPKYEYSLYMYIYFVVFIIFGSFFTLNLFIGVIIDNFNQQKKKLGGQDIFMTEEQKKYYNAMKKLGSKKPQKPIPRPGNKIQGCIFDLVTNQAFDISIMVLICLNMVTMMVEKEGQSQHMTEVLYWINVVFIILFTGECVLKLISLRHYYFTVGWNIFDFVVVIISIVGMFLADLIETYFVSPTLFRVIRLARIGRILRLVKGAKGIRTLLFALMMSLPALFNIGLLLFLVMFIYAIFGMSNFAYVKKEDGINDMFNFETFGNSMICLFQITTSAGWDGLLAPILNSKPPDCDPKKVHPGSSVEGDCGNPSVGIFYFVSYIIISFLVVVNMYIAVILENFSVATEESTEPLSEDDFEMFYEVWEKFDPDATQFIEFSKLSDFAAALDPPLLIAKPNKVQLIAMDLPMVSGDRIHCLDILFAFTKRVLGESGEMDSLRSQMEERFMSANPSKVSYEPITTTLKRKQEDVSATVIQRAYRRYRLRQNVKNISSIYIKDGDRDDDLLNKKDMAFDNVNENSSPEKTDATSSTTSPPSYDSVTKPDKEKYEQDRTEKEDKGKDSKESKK
T2 sequence (Q9UQD0 whole entry): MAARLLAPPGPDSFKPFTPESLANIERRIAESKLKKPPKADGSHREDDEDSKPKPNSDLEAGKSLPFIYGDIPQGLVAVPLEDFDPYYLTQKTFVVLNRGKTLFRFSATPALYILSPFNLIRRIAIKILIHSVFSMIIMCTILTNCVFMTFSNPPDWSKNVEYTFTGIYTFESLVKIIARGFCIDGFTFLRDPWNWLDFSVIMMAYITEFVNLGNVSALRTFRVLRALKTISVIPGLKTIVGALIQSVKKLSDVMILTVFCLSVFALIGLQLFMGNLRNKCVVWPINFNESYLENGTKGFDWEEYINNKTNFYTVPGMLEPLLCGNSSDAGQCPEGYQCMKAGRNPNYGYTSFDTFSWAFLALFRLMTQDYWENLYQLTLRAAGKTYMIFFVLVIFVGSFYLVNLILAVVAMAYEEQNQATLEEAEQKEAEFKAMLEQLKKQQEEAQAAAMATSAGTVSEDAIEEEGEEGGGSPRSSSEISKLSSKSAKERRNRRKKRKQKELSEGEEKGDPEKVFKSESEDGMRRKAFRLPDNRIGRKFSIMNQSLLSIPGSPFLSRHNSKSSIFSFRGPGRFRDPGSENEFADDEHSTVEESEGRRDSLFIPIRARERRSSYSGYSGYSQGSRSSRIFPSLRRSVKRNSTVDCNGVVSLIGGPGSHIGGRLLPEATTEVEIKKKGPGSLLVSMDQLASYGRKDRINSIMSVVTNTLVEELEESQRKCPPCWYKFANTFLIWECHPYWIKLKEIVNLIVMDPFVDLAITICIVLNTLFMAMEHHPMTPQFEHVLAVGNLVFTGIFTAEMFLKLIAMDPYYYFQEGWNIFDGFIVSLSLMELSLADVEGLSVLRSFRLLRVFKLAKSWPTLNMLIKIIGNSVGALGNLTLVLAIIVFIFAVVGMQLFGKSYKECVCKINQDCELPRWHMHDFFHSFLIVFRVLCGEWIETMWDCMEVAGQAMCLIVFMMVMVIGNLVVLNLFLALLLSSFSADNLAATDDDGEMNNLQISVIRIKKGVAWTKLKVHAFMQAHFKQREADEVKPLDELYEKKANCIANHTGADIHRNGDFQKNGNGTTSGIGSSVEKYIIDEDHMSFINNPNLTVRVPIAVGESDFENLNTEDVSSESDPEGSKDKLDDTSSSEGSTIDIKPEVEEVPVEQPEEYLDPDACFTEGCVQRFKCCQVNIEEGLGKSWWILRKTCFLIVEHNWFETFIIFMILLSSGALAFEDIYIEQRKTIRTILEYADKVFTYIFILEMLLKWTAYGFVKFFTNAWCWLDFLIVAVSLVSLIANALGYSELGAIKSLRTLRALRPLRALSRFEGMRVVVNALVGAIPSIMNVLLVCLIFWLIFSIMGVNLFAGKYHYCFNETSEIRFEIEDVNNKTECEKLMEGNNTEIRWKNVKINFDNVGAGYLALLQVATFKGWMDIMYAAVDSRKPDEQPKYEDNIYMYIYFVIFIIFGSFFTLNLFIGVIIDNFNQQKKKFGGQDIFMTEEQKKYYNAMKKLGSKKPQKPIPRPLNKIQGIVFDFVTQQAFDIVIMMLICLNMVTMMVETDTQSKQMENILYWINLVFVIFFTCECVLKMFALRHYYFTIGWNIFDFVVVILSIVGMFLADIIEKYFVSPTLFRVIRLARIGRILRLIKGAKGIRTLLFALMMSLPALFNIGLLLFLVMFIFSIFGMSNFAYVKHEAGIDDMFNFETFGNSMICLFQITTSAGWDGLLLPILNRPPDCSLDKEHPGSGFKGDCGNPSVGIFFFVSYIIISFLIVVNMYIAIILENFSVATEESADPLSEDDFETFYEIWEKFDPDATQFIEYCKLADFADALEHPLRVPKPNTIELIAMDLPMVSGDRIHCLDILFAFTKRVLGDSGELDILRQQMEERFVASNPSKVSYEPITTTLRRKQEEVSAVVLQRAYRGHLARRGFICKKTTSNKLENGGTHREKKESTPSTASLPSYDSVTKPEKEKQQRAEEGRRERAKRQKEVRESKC

Regarding `CC[C@H](C)[C@H](NC(=O)[C@H](CCC(N)=O)NC(=O)[C@H](Cc1c[nH]c2ccccc12)NC(=O)[C@H](CCCCN)NC(=O)[C@@H]1CSSC[C@@H]2NC(=O)[C@H](CCC(N)=O)NC(=O)[C@H](CC(=O)O)NC(=O)[C@H](CC(N)=O)NC(=O)[C@H](CO)NC(=O)[C@@H]3CCCN3C(=O)[C@H](CC(N)=O)NC(=O)[C@@H]3CSSC[C@H](NC(=O)[C@H](C(C)C)NC(=O)[C@H](CC(C)C)NC(=O)[C@H](CCCCN)NC(=O)[C@H](CO)NC(=O)[C@H](CO)NC(=O)[C@H](CCCCN)NC(=O)[C@H](CSSC[C@H](NC(=O)[C@@H](N)CCC(=O)O)C(=O)N[C@@H](CC(C)C)C(=O)N[C@@H](CCCCN)C(=O)N[C@@H]([C@@H](C)CC)C(=O)N[C@@H](Cc4ccccc4)C(=O)N[C@@H](CCCCN)C(=O)N[C@@H](C)C(=O)N3)NC2=O)C(=O)N[C@@H](CO)C(=O)N[C@@H](C)C(=O)N[C@@H](CCCCN)C(=O)N[C@@H]([C@@H](C)O)C(=O)N[C@@H](CCCNC(=N)N)C(=O)N[C@@H](Cc2c[nH]c3ccccc23)C(=O)N1)C(N)=O` [HwTx-IV E^4K/R ^26A/Y^33W], at hNaV1.7 channel, inhibition was half-maximal at 0.9 nM (IC50) and the “hNaV1.7 IC50 versus WT” value stood at 0.09. For the same compound, at hNaV1.7 channel (inverse ratio of the mean IC50 values on hNaV1.7 (CHO) and hNaV1.6 (HEK-293) of Table 1), the hNaV1.7/hNaV1.6 selectivity ratio entry is recorded as “above 46”. Besides, at hNaV1.6 channel, half-maximal inhibition (IC50) required 86.4 nM and the “hNaV1.6 IC50 versus WT” value is 0.38.
As for `CC[C@H](C)[C@H](NC(=O)[C@H](CCC(N)=O)NC(=O)[C@H](Cc1c[nH]c2ccccc12)NC(=O)[C@H](CCCCN)NC(=O)[C@@H]1CSSC[C@@H]2NC(=O)[C@H](CCC(N)=O)NC(=O)[C@H](CC(=O)O)NC(=O)[C@H](CC(N)=O)NC(=O)[C@H](CO)NC(=O)[C@@H]3CCCN3C(=O)[C@H](CC(N)=O)NC(=O)[C@@H]3CSSC[C@H](NC(=O)[C@H](C(C)C)NC(=O)[C@H](CC(C)C)NC(=O)[C@H](CCCCN)NC(=O)[C@H](CO)NC(=O)[C@H](CO)NC(=O)[C@H](CCCCN)NC(=O)[C@H](CSSC[C@H](NC(=O)[C@@H](N)CCC(=O)O)C(=O)N[C@@H](CC(C)C)C(=O)N[C@@H](CCC(=O)O)C(=O)N[C@@H]([C@@H](C)CC)C(=O)N[C@@H](Cc4ccccc4)C(=O)N[C@@H](CCCCN)C(=O)N[C@@H](C)C(=O)N3)NC2=O)C(=O)N[C@@H](CO)C(=O)N[C@@H](CCCNC(=N)N)C(=O)N[C@@H](CCCCN)C(=O)N[C@@H]([C@@H](C)O)C(=O)N[C@@H](CCCNC(=N)N)C(=O)N[C@@H](Cc2c[nH]c3ccccc23)C(=O)N1)C(N)=O` [HwTx-IV Y^33W], at hNaV1.7 channel, half-maximal inhibition (IC50) was put at 22.2 nM and the “hNaV1.7 IC50 versus WT” value is reported as 2.24. For the same compound, at hNaV1.6 channel, the concentration for half-maximal inhibition (IC50) (in general, the concentration that gives 50% inhibition) was 207 nM and the “hNaV1.6 IC50 versus WT” value amounted to 0.91.

The values above are taken from article PMC8722715 (Frontiers in Cell and Developmental Biology, 2021).
